From patent US20250381274A1 (priority 2022, published 2025)
Entries after “also recorded” stand apart in the source; their conditions may differ. Where two headings read alike, the source gives them in different places.

Legend:
corneal buttons = tested on: corneal buttons; set-up: species or system rabbit; conditions: for equilibrium modulus change vs paired control (words): Dresden protocol (riboflavin/R5P + UVA); for viscoelastic ratio change vs paired control (words): Dresden protocol (riboflavin/R5P + UVA) vs R5P-exposed-only control
Method: • 3 rabbits, (n=8 pairs of 3 mm biopsy punched corneal buttons) • Laser Treatments: • Fidelity II, 1069 nm, 450 mW • Focusing: Marker/spark around, not touching the tissue • Objective: ZEISS 40X, NA=0.1463 • Z: increments 20 μm, 5 layers (several intervals) • 1stlayer 15 μm below surface of focus sparking • XY: 10 μm zigzag grid, 3 mm radius circle • With ˜12 gram compression • Motor speed 2.6 mm/s, full circle treatments: ˜25*5 mins • Sample Preparation: • −3 mm biopsy punch (1BT) • not connected to IV system • Prior to LT: 30 mins in 20% w/w Dextran 500 in PBS • 30 mins in 20% w/w ribose in DPBS (˜1.7M) • Post LT: Trypan blue is used to mark endothelium side • Imaged on the same day in DPBS • Overnight storage in DPBS in 4C fridge • 3 hrs prior to indentation, in room temp PBS • Piuma nano-indentation: • For each cornea button, the average of up to 16 indentations are acquired as
• 3 rabbits, (n=10 pairs of 3 mm biopsy punched corneal buttons) • 3 mm biopsy punch • not connected to IV system • Treatment Protocol-1 hr submerged in 20% w/v Ribose for all samples • 1 hr of UV-A lamp irradiation (control was not under UV) • Post Treatment Trypan blue is used to mark endothelium side • Imaged on the same day in DPBS • Overnight storage in DPBS in 4C fridge • 3 hrs prior to indentation, in room temp PBS • Piuma nano-indentation: • For each cornea button, the average of up to 16 indentations are acquired as representative modulus • The average of the representative modulus are presented in appended FIGS. 1-25.
Nano-Indentation: The corneal buttons were stored in PBS in a 4C fridge overnight for hydration equilibrium. Indentations of 5 μm depth using 29-35 μm diameter spherical indenters were performed on the anterior surface of the cornea buttons to acquire 25-second load-relaxation curves. For each button, the average of up to 16 indentations was used as the representative result. The equilibrium modulus and the viscoelastic ratio, defined as equilibrium modulus over instantaneous modulus, were calculated and compared.
Nanoindentation: Indentations were performed on the anterior surface of the cornea buttons. The equilibrium modulus E∞, instantaneous modulus Eo, and the viscoelastic ratio E∞/Eo, were calculated and compared.
After overnight incubation in PBS at 4C to reach equilibrium hydration, corneal buttons in Group A were allowed to return to room temperature the next morning after the respective treatment days while glued to the bottom of a petri-dish with the anterior surface of the corneal button facing upward. A displacement-controlled indenter (Piuma, Optics 11, Amsterdam, The Netherlands) was used to perform micro-indentations on top of the sample surface submerged in PBS; for each sample, multiple tests were performed following an array of 16 equally spaced (4×4) contact points with a spacing of 100 μm to 150 μm, covering roughly a 0.4×0.4 mm^2 area at the center of each corneal button. A spherical glass probe with a 34 μm radius and 0.2 N/m stiffness was used for samples in Group 1A; another spherical glass probe with a 25.5 μm radius and 4.09 N/m stiffness was used for Group 1B, 1C, 1D, and 2C. The indentation process at each contact point was comprised of three consecutive steps of loading Piezo movement of 5 μm for 2 seconds, holding time of 5 s, and unloading for 2 seconds. The load-relaxation curves obtained after indenting each point were then processed using a viscoelastic model to obtain equilibrium modulus and viscoelastic ratio following a fitting algorithm developed by Oyen.

corneal tissues = experiment: Multiphoton/confocal imaging: autofluorescence and second harmonic generation signal; set-up: species or system rabbit; conditions: anterior 100 μm
Source text: • The grey value of the top 100 μm (11 Z-stacks) of the cornea button was summed; • The average of the grey value summations are presented in appended FIGS. 1-25. • […] • The average of the grey value summations and Representative images at ˜600*600*100 μm in x, y, z are presented in appended FIGS. 1-25. The autofluorescence and second harmonic generation (SHG) signals of the corneal tissues in Group A were investigated to reveal the presence of CxLs and structural changes in collagenous ECM after hydration equilibrium in PBS on the same night of individual treatment days. Imaging was performed with a Nikon TI Eclipse inverted microscope using a Ti: Sapphire laser Chameleon Ultra II at 860 nm as the light source and a Nikon Apo LWD 20× objective for focusing. The emission filter was set at the FITC channel (475-650 nm, peak 525 nm) for autofluorescence signal collection and at the DAPI channel (400-600 nm, peak at 457 nm) for SHG signal collection. The XY scanning area for each sample was 635 μm by 635 μm, and Z scanning was 100 μm deep with 10 μm increments (stack of 11 images per sample). The summation of the average grey value processed in Image J at each layer was used as the representative signal strength for each sample.

## Dextran
Corneal buttons; 20% Dextran + femtosecond laser 755-760 nm ~850 mW, coverslip, without oxygen
  equilibrium modulus change: significantly increased the equilibrium modulus of the cornea, but the magnitudes are small

## riboflavin-5-phosphate [R5P, reference compound]
Corneal buttons
  equilibrium modulus change vs paired control (words): statistically significant differences
  viscoelastic ratio change vs paired control (words): more elastic response; also recorded: significantly different time-dependent elastic response
Corneal buttons; listed as riboflavin
  viscoelastic ratio change vs paired control (words): significant increase; also recorded: significantly increased
  equilibrium modulus change vs paired control (words): significantly increased
Corneal buttons; Group 1D positive control: Dresden protocol, 0.1% R5P in 20% dextran 500 + UVA
  equilibrium modulus: 100 kPa
Corneal tissues; Dresden protocol vs R5P exposed control
  second harmonic generation signal intensity change vs paired control (words): increased SHG signal; also recorded: statistically significant increase; also recorded: Statistical significance
Corneal tissues; Dresden protocol vs R5P only control
  autofluorescence signal intensity change vs paired control (words): increased; also recorded: Statistical significance
